{
  "source": "patent US5900406A",
  "about": "“Use of antibiotics of the type 2-deoxystreptamine substituted with aminosugars to inhibit growth of microorganisms containing group I introns” (NZYM, Inc., priority 1991, dated 1999)",
  "key": {"[1]": {"test_system": "td intron (group I intron of the thymidylate synthase gene of phage T4, truncated version)", "assay_type": "biochemical", "procedure": "In vitro-transcribed and gel-purified^8 preRNA from a truncated version of the td intron^21 was incubated in a splicing buffer (50 mM Tris-HCl, pH 7.5, 5 mM MgCl2, 0.4 mM spermidine) for 10 min at 37° C. with GTP and gentamicin as indicated. Samples were separated on 5% acrylamide/7 M urea gels. RNA species are as follows: In-E2, intron-exon 2; L-ln, linear intron; E1-E2, ligated exons; E1, exon 1.\nFIGS. 3a-c, Splicing experiments were done with the td intron as described in FIG. 2a, using several members of each family of aminoglycoside antibiotics (gentamicin, kanamycin and neomycin). Structures of the antibiotics can be found in Davies and Yagisaura in Biochemistry and Genetic Function Of Commercially Important Antibiotics, p. 329-354, Addison-Wesley, London, (1983) \"Conc\" is the antibiotic concentration at which about 50% inhibition was observed.\nTo monitor the splice process in vitro precursor RNA containing exon1, intron and exon2 was synthesized by in vitro transcription using bacteriophage RNA polymerase. During transcription, a radioactive labeled nucleotide was present in the nucleotide mixture and was incorporated in the RNA. This radioactive labeled RNA was then subjected to splicing conditions and after reaction the RNA splice products were separated from each other by electrophoresis on a denaturing acrylamide gel. The gel was dried and exposed for autoradiography.\nUnspliced precursor RNA from the thymidylate synthase gene of the phage T4, which had been transcribed in vitro, and purified as previously described, (Schroeder, R., von Ahsen, U. & Belfort, M. Biochemistry 30, 3295-3303 (1991)) was incubated with increasing amounts of gentamicin under normal splicing conditions.\n(§1) Materials and Methods: In vitro splicing experiments were performed with a truncated version of the td gene, containing 79 nt of exon I, 265 nt of intron sequences containing only the catalytic core (delta P6-2) and 21 nt of exon H (Schroeder, von Ahsen, & Belfort, 199 1, Biochemistry 30, 3295). The plasmids containing the Tetrahymena rRNA intron and the yeast mitochondrial cob intron I (the group II intron) were pBGST7 (Been & Cech, 1986, Cell 47, 207) and pBSbIl (Schmelzer and Schweyen, 1986, Cell 46, 557), respectively. The sunY intron is described in Michel et al. (1990, Genes & Development 4, 777). DNA was prepared by the alkaline-lysis procedure and linearized with appropriate restriction enzymes. Transcription was performed in a total volume of 20 μl at 30° C. for one (1) hour in buffer containing 40 mM Tris-HCl pH 7.5, 3 mM MgCl2, 0.4 mM spermidine, 1 mM of each NTP, 5 mM […], 10 units T7 RNA polymerase (Boehringer Mannheim), 10 μCi alpha-^35 S-CTP and 10 units RNAse inhibitor (Boehringer Mannheim). The reaction mixture was loaded on a 5% polyacrylamide/7 M urea gel. Precursor RNA was cut out of the gel and soaked in 400 μl elution buffer (10 mM Tris-HCl pH 7.5, 10 mM EDTA, 3.5 M NH4 OAc, 0.1% SDS) for two hours. After ethanol precipitation, the RNA was dissolved in H2 O-- before splicing experiments were performed the RNA was incubated in splicing buffer (40 mM Tris-HCl pH 7.5, 8 mM MgCl2, 0.4 mM spermidine) for 2 min at 56° C. For splicing of the suny intron and the Tetrahymena intron 50 mM NH4 Cl or 200 mM NaCl were added, respectively. Splicing was initiated by addition of guanosine at the appropriate concentration at 37° C. When splicing was to be inhibited by antibiotic, the antibiotic was added immediately before the guanosine. Splicing reactions were performed at 37° C. for 10'."}, "[2]": {"test_system": "sunY intron (shortened version, construct SYC1.3)", "experiment": "In vitro splicing inhibition of the sunY group I intron (GTP incorporation assay)", "assay_type": "biochemical, T4-phage", "procedure": "as §1, with “DNA” for “Materials and Methods: In vitro splicing experiments were performed with a truncated version of the td gene, containing 79 nt of exon I, 265 nt of intron sequences containing only the catalytic core (delta P6-2) and 21 nt of exon H (Schroeder, von Ahsen, & Belfort, 199 1, Biochemistry 30, 3295). The plasmids containing the Tetrahymena rRNA intron and the yeast mitochondrial cob intron I (the group II intron) were pBGST7 (Been & Cech, 1986, Cell 47, 207) and pBSbIl (Schmelzer and Schweyen, 1986, Cell 46, 557), respectively. The sunY intron is described in Michel et al. (1990, Genes & Development 4, 777). DNA”, “10'. […] Samples were separated on 5% acrylamide/7 M urea gels.” for “10'.”"}, "[3]": {"test_system": "group I intron from the ribosomal RNA from Tetrahymena thermophila", "experiment": "In vitro splicing inhibition of the Tetrahymena rRNA group I intron", "assay_type": "biochemical", "settings": "read-out: concentration giving 50% inhibition of splicing", "procedure": "To see whether this inhibition could be extended to all group I introns, the group I intron from the ribosomal RNA from Tetrahymena thermophila was tested for sensitivity towards gentamicin and again the splice reaction was inhibited. To test the specificity of this interaction of gentamicin with this type of catalytic RNA […]\n(§2) Materials and Methods: In vitro splicing experiments were performed with a truncated version of the td gene, containing 79 nt of exon I, 265 nt of intron sequences containing only the catalytic core (delta P6-2) and 21 nt of exon H (Schroeder, von Ahsen, & Belfort, 199 1, Biochemistry 30, 3295). The plasmids containing the Tetrahymena rRNA intron and the yeast mitochondrial cob intron I (the group II intron) were pBGST7 (Been & Cech, 1986, Cell 47, 207) and pBSbIl (Schmelzer and Schweyen, 1986, Cell 46, 557), respectively. The sunY intron is described in Michel et al. (1990, Genes & Development 4, 777). DNA was prepared by the alkaline-lysis procedure and linearized with appropriate restriction enzymes. […]"}, "[4]": {"test_system": "group II bI1 intron (first intron of the yeast mitochondrial apocytochrome b gene)", "experiment": "In vitro splicing of a group II intron in the presence of aminoglycosides", "assay_type": "biochemical", "settings": "concentrations ≤5 mM", "procedure": "FIG. 2c, Precursor -A of the group II bli intron (first intron of the yeast mitochondrial apocytochrome b gene) was incubated in a splicing buffer (40 mM Tris-HCl, pH 7.5, 60 mM MgCl2, 625 mM (NH4)2 SO4, 2 mM spermidine) at 42° C. for 60 min with increasing amounts of gentamicin as indicated. Splicing products were separated as in FIG. 2 A. C is an unincubated control.\nas §2, with “enzymes. Transcription was performed in a total volume of 20 μl at 30° C. for one (1) hour in buffer containing 40 mM Tris-HCl pH 7.5, 3 mM MgCl2, 0.4 mM spermidine, 1 mM of each NTP, 5 mM […], 10 units T7 RNA polymerase (Boehringer Mannheim), 10 μCi alpha-^35 S-CTP and 10 units RNAse inhibitor (Boehringer Mannheim).” for “enzymes.”"}, "[5]": {"test_system": "td intron (group I intron of the thymidylate synthase gene of phage T4, truncated version)", "settings": "td intron self-splicing; read-out: Michaelis constant (Km) for GTP; cited from earlier work"}},
  "data": [
    {"molecule": "gentamicin", "values": [
      {"measurement": "concentration at which the second step (cleavage at the 3' splice-site and exon ligation) is completely inhibited", "setting": "[1]; GTP 2.5 μM or 100 μM", "value": 2.5, "unit": "µM"},
      {"measurement": "effect on the first step of splicing", "setting": "[1]; concentrations ≤2 mM, whatever the guanosine concentration", "value": "little effect"},
      {"measurement": "concentration to which the sunY intron is sensitive", "setting": "[2]", "value": 100, "unit": "µM"},
      {"measurement": "IC50", "setting": "[3]", "value": "~100", "unit": "µM"},
      {"measurement": "inhibition of splicing of the group II intron", "setting": "[4]", "value": "not inhibited"}
    ]},
    {"molecule": "Nc1nc2c(ncn2[C@@H]2O[C@H](COP(=O)(O)OP(=O)(O)OP(=O)(O)O)[C@@H](O)[C@H]2O)c(=O)[nH]1", "note": "[GTP]", "values": [
      {"measurement": "Km", "setting": "[5]", "value": 1, "unit": "µM"}
    ]},
    {"molecule": "NC[C@H]1O[C@H](O[C@H]2[C@H](O)[C@@H](O[C@H]3O[C@H](CO)[C@@H](O)[C@H](N)[C@H]3O)[C@H](N)C[C@@H]2N)[C@H](N)C[C@@H]1O", "note": "[Tobramycin]", "values": [
      {"measurement": "lowest concentration with splicing inhibition activity", "setting": "[1]; activity at a concentration as low as", "value": 0.5, "unit": "µM"},
      {"measurement": "antibiotic concentration affecting the first step of splicing", "setting": "[1]; first step affected only at this concentration", "value": 100, "unit": "µM"},
      {"measurement": "IC50", "setting": "[1]; in vitro splicing, 37° C., 10 min, read-out: concentration giving approximately 50% inhibition of the second splice step of the td intron", "value": "~0.5", "unit": "µM"},
      {"measurement": "inhibition of splicing of the group II intron", "setting": "[4]", "value": "not inhibited"}
    ]}
  ]
}
